Measurements taken from patent publication US20240398817A1, “CARDIO- AND RENOSAFE ANTIDIABETIC THERAPY” (priority 2018, published 2024).

Tested on: patients with type 2 diabetes at high vascular risk
Assay: Cardiovascular and Renal Outcomes Trial: linagliptin 5 mg once daily vs placebo on top of standard of care
Assay type: in vivo
Conditions: for 3P-MACE: hazard ratio (95% CI) vs placebo: Cox regression
Method: The effect of linagliptin on cardiovascular risk in adult patients with type 2 diabetes mellitus and with increased CV risk evidenced by a history of established macrovascular or renal disease (e.g. as defined herein) was evaluated in a multi-center, multi-national, randomized, double-blind parallel group trial. The trial compared the risk of experiencing a major adverse cardiovascular event (MACE) between linagliptin and placebo when these were added to and used concomitantly with standard of care treatments for diabetes (HbA1c), cardiovascular risk factors and renal disease.
The primary endpoint in this trial was the time to first occurrence of three point (3P) MACE. A major adverse cardiac event was defined as a cardiovascular death or a nonfatal myocardial infarction (MI) or a nonfatal stroke. The statistical analysis plan tested for non-inferiority for the occurrence of (3P) MACE. […] The secondary endpoint was a renal composite, defined as renal death or sustained end stage renal disease or sustained decrease of 40% or more in eGFR.
Type 2 diabetes patient with insufficient glycemic control (naïve or pre-treated with any antidiabetic background medication, excluding treatment with GLP-1 receptor agonists, DPP-4inhibitors or SGLT-2 inhibitors if ≥consecutive 7 days, e.g. having HbA1c 6.5-10%), and high risk of cardiovascular events, e.g. defined by: • albuminuria (micro or macro) and previous macrovascular disease: e.g. defined according to Condition I as indicated below; • and/or • impaired renal function: e.g. as defined according to Condition II as indicated below;
Background and aims: People with type 2 diabetes (T2D) are at increased risk for hospitalization for heart failure (hHF), particularly in the setting of concomitant cardiovascular (CV) and/or kidney disease. […] Here we present analyses of HF outcomes with the DPP-4 inhibitor linagliptin (LINA) vs. placebo (PBO) from a Cardiovascular and Renal Outcomes Trial assessing cardiovascular safety and renal microvascular outcome in patients with type 2 diabetes at high vascular risk, a large CV outcomes trial that enrolled participants with T2D at high risk for hHF due to concomitant CV and/or chronic kidney disease. Materials and methods: People with T2D and concomitant CV and/or kidney disease were randomized to receive LINA 5 mg, or PBO once daily (1:1), on top of standard of care. All hHF, CV outcomes, and deaths were centrally adjudicated, with individual and composite HF-related outcomes analyses comparing LINA vs. placebo. Investigator-reported HF-related adverse events, whether or not confirmed by adjudication, were also analyzed. A Cox proportional hazards model adjusting for region and history of HF was used for analyses of first events. Recurrent hHF events were analyzed using a negative binomial model.
Methods: The present Cardiovascular and Renal Outcomes Trial randomized people with T2D and i) concomitant CV disease with UACR >30 mg/g or ii) prevalent CKD (i.e. GFR <45 ml/min/1.73m2 and/or UACR >200 mg/g) to receive the DPP-4 inhibitor linagliptin (5 mg) or placebo once daily in a double-blind fashion. The primary CV endpoint was 3P-MACE, with a key secondary kidney endpoint (adjudicated ESKD, renal death, or sustained ≥40% decrease in eGFR from baseline) and other renal outcomes (including albuminuria and eGFR slope) also assessed. Subgroups were assessed by baseline kidney function (eGFR ≥/<45 ml/min/1.73m2and eGFR ≥/<30, 45 or 60 ml/min/1.73m2).
Adults with type 2 diabetes, HbA1c 6.5-10.0% inclusive, and high CV risk were eligible for inclusion. […] Macrovascular disease eligibility criteria was based on documented and confirmed history of myocardial infarction, coronary artery disease, stroke, carotid artery disease, or peripheral artery disease. Participants with end-stage kidney disease (ESKD), defined as eGFR <15 or requiring maintenance dialysis, were excluded.

[1] = all patients, listed as Lingagliptin
[2] = all patients, listed as linagliptin
[3] = both, human, in vivo, 5 mg, 1.9 years
[4] = eGFR ≥30 to <45 mL/min/1.73 m^2

## CC#CCn1c(N2CCC[C@@H](N)C2)nc2c1c(=O)n(Cc1nc(C)c3ccccc3n1)c(=O)n2C [Linagliptin, 1-[(4-methyl-quinazolin-2-yl)methyl]-3-methyl-7-(2-butyn-1-yl)-8-(3-(R)-amino-piperidin-1-yl)-xanthine]
All patients
  3P-MACE: rate/100 patient-years: 4.69 per 100 patient-years
  All-cause death: rate per 100 person-years: 4.69 per 100 person-years
  All-cause mortality: incidence rate per 1000 PY: 46.9 per 1000 patient years
  All-cause mortality: number of subjects: 367
  Hospitalization for heart failure: incidence rate/1000 patient-years: 27.7 per 1000 patient years
  Hospitalization for heart failure: number of patients: 209
  Hospitalization for heart failure: rate/100 patient-years: 2.77 per 100 patient-years
  Renal composite (40% eGFR): incidence rate per 1000 PY: 48.9 per 1000 patient years
  Renal composite (40% eGFR): rate/100 patient-years: 4.89 per 100 patient-years
  Renal composite (renal death, sustained ESRD, sustained decrease of 40% or more in eGFR): number of subjects: 327
  Renal death or sustained ESKD: number of patients: 136
  Renal death or sustained ESKD: patients, %: (3.9) %
  Renal death or sustained ESKD: rate/1000 patient-years: 17.8 per 1000 patient years
  Renal death, or sustained ESKD: rate/100 patient-years: 1.78 per 100 patient-years
  Renal death, sustained ESKD, or sustained ≥ doubling of se-creatinine from baseline: n: 219
  Renal death, sustained ESKD, or ≥ doubling of se-creatinine: %: (6.3) %
  Renal death, sustained ESKD, or ≥ doubling of se-creatinine: rate/100 patient-years: 3.21 per 100 patient-years
  3P-MACE: hazard ratio (95% CI) vs placebo: 1.02
[1]
  3P-MACE: hazard ratio (95% CI) vs placebo: 1.02 (0.89. 1.17)
  3P-MACE: subjects with event, %: 12.4%
  Renal composite (40% eGFR): hazard ratio (CI) vs placebo: 1.04 (0.89, 1.22)
  Renal composite (40% eGFR): subjects, %: 9.4%
All patients, n = 3494
  3P-MACE (CV death, non-fatal MI, non-fatal stroke): number of subjects with event: 434
All patients, listed as LINA
  Hospitalization for heart failure: hazard ratio (95% CI) vs placebo: 0.90
  Renal composite (40% eGFR): hazard ratio (CI) vs placebo: 1.04
[2]
  3P-MACE: rate/100 patient-years: 5.77 per 100 patient-years
  3P-MACE: subjects with event, %: 12.4%
  All-cause mortality: hazard ratio (95% CI) vs placebo: 0.98
  All-cause mortality: subjects, %: 10.5%
  Hospitalization for heart failure: hazard ratio (95% CI) vs placebo: 0.90
  Hospitalization for heart failure: patients, %: 6.0%
  Renal composite (40% eGFR): hazard ratio (CI) vs placebo: 1.04
  Renal composite (40% eGFR): subjects, %: 9.4%
  Renal death or sustained ESKD: hazard ratio (95% CI) vs placebo: 0.87
  Renal death or sustained ESKD: patients, %: 3.9%
[3]
  Fatal cases of pancreatitis: %: 0.1%
  Fatal cases of pancreatitis: n: 2
eGFR <30 mL/min/1.73 m^2
  3-point MACE: hazard ratio vs placebo: 0.97
  3-point MACE: patients with event/patients analyzed: 101/516
  Key secondary kidney outcome: hazard ratio vs placebo: 1.05
  Key secondary kidney outcome: patients with event/patients analyzed: 133/516
eGFR < 45 (n = 3000)
  3P-MACE: %: (16.6) %
  3P-MACE: HR (95% CI) vs placebo: 1.02 (0.85, 1.21)
  3P-MACE: n: 250
  3P-MACE: rate/100 patient-years: 7.61 per 100 patient-years
  Hospitalized heart failure: %: (8.9) %
  Hospitalized heart failure: HR (95% CI) vs placebo: 0.87 (0.69, 1.10)
  Hospitalized heart failure: n: 135
  Hospitalized heart failure: rate/100 patient-years: 4.13 per 100 patient-years
  Key secondary kidney endpoint: %: (14.7) %
  Key secondary kidney endpoint: HR (95% CI) vs placebo: 0.97 (0.80, 1.17)
  Key secondary kidney endpoint: n: 222
  Key secondary kidney endpoint: rate/100 patient-years: 7.83 per 100 patient-years
  Renal death, or sustained ESKD: %: (8.2) %
  Renal death, or sustained ESKD: HR (95% CI) vs placebo: 0.82 (0.64, 1.04)
  Renal death, or sustained ESKD: n: 124
  Renal death, or sustained ESKD: rate/100 patient-years: 3.78 per 100 patient-years
  Renal death, sustained ESKD, or ≥ doubling of se-creatinine: %: (10.9) %
  Renal death, sustained ESKD, or ≥ doubling of se-creatinine: HR (95% CI) vs placebo: 0.87 (0.70, 1.07)
  Renal death, sustained ESKD, or ≥ doubling of se-creatinine: n: 165
  Renal death, sustained ESKD, or ≥ doubling of se-creatinine: rate/100 patient-years: 5.69 per 100 patient-years
eGFR decrease 50%
  Risk of composite microvascular outcome 1 vs placebo, in words: significantly reduced
eGFR decrease of 40% and 30%
  Risk of composite microvascular outcome 2 and 3 vs placebo, in words: also significantly reduced
[4]
  3-point MACE: hazard ratio vs placebo: 1.07
  3-point MACE: patients with event/patients analyzed: 149/994
  Key secondary kidney outcome: hazard ratio vs placebo: 0.95
  Key secondary kidney outcome: patients with event/patients analyzed: 89/994
eGFR ≥ 45 (n = 3979)
  3P-MACE: %: (9.3) %
  3P-MACE: HR (95% CI) vs placebo: 1.03 (0.84, 1.26)
  3P-MACE: n: 184
  3P-MACE: rate/100 patient-years: 4.34 per 100 patient-years
  Hospitalized heart failure: %: (3.7) %
  Hospitalized heart failure: HR (95% CI) vs placebo: 0.97 (0.70, 1.34)
  Hospitalized heart failure: n: 74
  Hospitalized heart failure: rate/100 patient-years: 1.73 per 100 patient-years
  Key secondary kidney endpoint: %: (5.3) %
  Key secondary kidney endpoint: HR (95% CI) vs placebo: 1.19 (0.89, 1.58)
  Key secondary kidney endpoint: n: 105
  Key secondary kidney endpoint: rate/100 patient-years: 2.72 per 100 patient-years
  Renal death, or sustained ESKD: %: (0.6) %
  Renal death, or sustained ESKD: HR (95% CI) vs placebo: 1.50 (0.61, 3.67)
  Renal death, or sustained ESKD: n: 12
  Renal death, or sustained ESKD: rate/100 patient-years: 0.28 per 100 patient-years
  Renal death, sustained ESKD, or ≥ doubling of se-creatinine: %: (2.7) %
  Renal death, sustained ESKD, or ≥ doubling of se-creatinine: HR (95% CI) vs placebo: 1.08 (0.73, 1.59)
